Measurements from article PMC6096483, “Structural studies of the unusual metal-ion site of the GH124 endoglucanase from Ruminiclostridium thermocellum” (Acta Crystallographica. Section F, Structural Biology …, 2018).

Molecular target: T1, RtGH124 (GH124 endoglucanase GH124A) (Acetivibrio thermocellus, UniProt A3DCJ4)
T1 construct: gene Cthe_0435; GH124 catalytic domain without dockerin; E. coli BL21(DE3)pLysS; N-terminal His6-3C tag cleaved, leaving GPA before […]; ends ...DRSNPWEIYY; 25304 Da calculated; His264 partially 2-oxohistidine
Experiment: X-ray crystallography (co-crystallization, […] A)
Format: binding
Settings: active site, two cellotrioses on either side of catalytic Glu203; Mn2+ at distant metal site; Tacsimate pH 5.0; 6.7 mM ligand

T1 sequence (A3DCJ4 entry or part of it): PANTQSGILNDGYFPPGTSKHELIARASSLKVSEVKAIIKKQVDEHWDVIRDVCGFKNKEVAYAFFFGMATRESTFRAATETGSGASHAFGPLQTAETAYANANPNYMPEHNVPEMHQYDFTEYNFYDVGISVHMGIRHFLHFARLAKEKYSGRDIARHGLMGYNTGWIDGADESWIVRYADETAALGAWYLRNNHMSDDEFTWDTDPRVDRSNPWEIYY

OC[C@H]1O[C@@H](O[C@H]2[C@H](O)[C@@H](O)[C@H](O[C@H]3[C@H](O)[C@@H](O)C(O)O[C@@H]3CO)O[C@@H]2CO)[C@H](O)[C@@H](O)[C@@H]1O (stereo partly shown) [G3, cellotriose]
X-ray crystallography (co-crystallization, 1.03 A): Structures of RtGH124 co-crystallized with cellotriose (G3) showed an active site with two cellotrioses
